Measurements from patent publication EP4640678A1, “NOVEL OXO-PYRIDINE COMPOUND, PREPARATION METHOD THEREFOR, AND USE THEREOF” (Chengdu Shibeikang Biomedical Technology Co., Ltd., priority 2022, dated 2024).

Tested on: human plasma
Assay: determination of in-vitro anticoagulant effect in human plasma (APTT)
Type: biochemical
Conditions: healthy human plasma, 37°C for 3 min
Protocol: After centrifugation, the plasma sample was pipetted and frozen (-80°C) for later use.
A proper amount of a compound was weighed and prepared into a 10-100 mM stock solution using 100% of DMSO (the specific concentration of the stock solution was determined based on the properties of the compound); and then working solutions with various concentrations (specifically: 1 µM, 3 µM and 10 µM, respectively) were prepared from the stock solution using the healthy human plasma as a solution and thoroughly mixed. After incubation at 37°C for 3 min, the sample was placed on an instrument (model: CS-2000I) to determine APTT.
GraphPad Prism software was used for analysis to calculate the APTT prolongation rate at each concentration.

Row | Compound | APTT prolongation rate (%) (1 µM) | APTT prolongation rate (%) (3 µM) | APTT prolongation rate (%) (10 µM)
1 | CC[C@@H](C(=O)Nc1cc(F)c(C(=O)NC)c(F)c1)n1cc(OC)c(-c2cc(Cl)ccc2-n2cc(C(F)(F)F)nn2)cc1=O [Compound 20, (S)-4-(2-(4-(5-chloro-2-(4-(trifluoromethyl)-1H-1,2,3-triazol-1-yl)phenyl)-5-methoxy-2-oxopyridin-1(2H)-yl)butanamido)-2,6-difluoro-N-methylbenzamide] | 19.2% | 49.2% | 98.6%
2 | CC[C@@H](C(=O)Nc1c(Cl)cc(C(N)=O)cc1Cl)n1cc(OC)c(-c2cc(Cl)ccc2-n2cc(C(F)(F)F)nn2)cc1=O [Compound 15, (S)-3,5-dichloro-4-(2-(4-(5-chloro-2-(4-(trifluoromethyl)-1H-1,2,3-triazol-1-yl)phenyl)-5-methoxy-2-oxopyridin-1(2H)-yl)butanamido)benzamide] | 24.2% | 30.0% | 51.1%
3 | (S)-4-(2-(4-(5-chloro-2-(4-(trifluoromethyl)-1H-1,2,3-triazol-1-yl)phenyl)-5-methoxy-2-oxopyridin-1(2H)-yl)butanamido)-3,6-difluorobenzamide [Compound 14] | 0.9% | 9.1% | 18.5%
4 | CC[C@@H](C(=O)Nc1ccc(C(=O)NC)c(Cl)c1)n1cc(OC)c(-c2cc(Cl)ccc2-n2cc(C(F)(F)F)nn2)cc1=O [Compound 3, (S)-2-chloro-4-(2-(4-(5-chloro-2-(4-(trifluoromethyl)-1H-1,2,3-triazol-1-yl)phenyl)-5-methoxy-2-oxopyridin-1(2H)-yl)butanamido)-N-methylbenzamide] | 48.2% | 66.5% | 92.0%
5 | [2H]C([2H])([2H])NC(=O)c1ccc(NC(=O)[C@@H](n2cc(OC([2H])([2H])[2H])c(-c3cc(Cl)ccc3-n3cc(C(F)(F)F)nn3)cc2=O)C([2H])([2H])C([2H])([2H])[2H])cc1F [Compound 30, (S)-4-(2-(4-(5-chloro-2-(4-(trifluoromethyl)-1H-1,2,3-triazol-1-yl)phenyl)-5-(methoxy-d3)-2-oxopyridin-1(2H)-yl)butanamido-3,3,4,4,4-d5)-2-fluoro-N-(methyl-d3)benzamide] | 48.1% | 79.0% | 138.4%
6 | CC[C@@H](C(=O)Nc1ccc(C(N)=O)c(C(N)=O)c1)n1cc(OC)c(-c2cc(Cl)ccc2-n2cc(C(F)(F)F)nn2)cc1=O [Compound 8, (S)-4-(2-(4-(5-chloro-2-(4-(trifluoromethyl)-1H-1,2,3-triazol-1-yl)phenyl)-5-methoxy-2-oxopyridin-1(2H)-yl)butanamido)phthalamide] | 34.7% | 64.5% | 93.8%
7 | CC[C@@H](C(=O)Nc1ccc(C(=O)NC)cc1F)n1cc(OC)c(-c2cc(Cl)ccc2-n2cc(C(F)(F)F)nn2)cc1=O [Compound 19, (S)-4-(2-(4-(5-chloro-2-(4-(trifluoromethyl)-1H-1,2,3-triazol-1-yl)phenyl)-5-methoxy-2-oxopyridin-1(2H)-yl)butanamido)-3-fluoro-N-methylbenzamide] | 24.2% | 44.0% | 77.1%
8 | CC[C@@H](C(=O)Nc1ccc(C(N)=O)c(Cl)c1)n1cc(OC)c(-c2cc(Cl)ccc2-n2cc(Cl)nn2)cc1=O [Compound 10, (S)-2-chloro-4-(2-(4-(5-chloro-2-(4-chloro-1H-1,2,3-triazol-1-yl)phenyl)-5-methoxy-2-oxopyridin-1(2H)-yl)butanamido)benzamide] | 38.6% | 56.0% | 98.9%
9 | CC[C@@H](C(=O)Nc1ccc(C(=O)OC)c(Cl)c1)n1cc(OC)c(-c2cc(Cl)ccc2-n2cc(C(F)(F)F)nn2)cc1=O [Compound 4, Methyl (S)-2-chloro-4-(2-(4-(5-chloro-2-(4-(trifluoromethyl)-1H-1,2,3-triazol-1-yl)phenyl)-5-methoxy-2-oxopyridin-1(2H)-yl)butanamido)benzoate] | 31.5% | 54.3% | 102.6%
10 | [2H]C([2H])([2H])Oc1cn([C@@H](CC)C(=O)Nc2ccc(C(=O)NC)cc2F)c(=O)cc1-c1cc(Cl)ccc1-n1cc(C(F)(F)F)nn1 [Compound 24, (S)-4-(2-(4-(5-chloro-2-(4-(trifluoromethyl)-1H-1,2,3-triazol-1-yl)phenyl)-5-(methoxy-d3)-2-oxopyridin-1(2H)-yl)butanamido)-3-fluoro-N-methylbenzamide] | 35.1% | 73.2% | 132.5%
11 | CC[C@@H](C(=O)Nc1ccc(C(N)=O)c(F)c1F)n1cc(OC)c(-c2cc(Cl)ccc2-n2cc(C(F)(F)F)nn2)cc1=O [Compound 12, (S)-4-(2-(4-(5-chloro-2-(4-(trifluoromethyl)-1H-1,2,3-triazol-1-yl)phenyl)-5-methoxy-2-oxopyridin-1(2H)-yl)butanamido)-2,3-difluorobenzamide] | 23.2% | 33.5% | 81.1%
12 | [2H]C([2H])([2H])Oc1cn([C@@H](CC)C(=O)Nc2ccc(C(N)=O)cc2F)c(=O)cc1-c1cc(Cl)ccc1-n1cc(C(F)(F)F)nn1 [Compound 23, (S)-4-(2-(4-(5-chloro-2-(4-(trifluoromethyl)-1H-1,2,3-triazol-1-yl)phenyl)-5-(methoxy-d3)-2-oxopyridin-1(2H)-yl)butanamide)-3-fluorobenzamide] | 48.8% | 81.2% | 168.0%
13 | CC[C@@H](C(=O)Nc1ccc(C(N)=O)c(C(F)(F)F)c1)n1cc(OC)c(-c2cc(Cl)ccc2-n2cc(Cl)nn2)cc1=O [Compound 11, (S)-4-(2-(4-(5-chloro-2-(4-chloro-1H-1,2,3-triazol-1-yl)phenyl)-5-methoxy-2-oxopyridin-1(2H)-yl)butanamido)-2-(trifluoromethyl)benzamide] | 18.7% | 26.9% | 42.0%
14 | CC[C@@H](C(=O)Nc1ccc(C(N)=O)cc1Cl)n1cc(OC)c(-c2cc(Cl)ccc2-n2cc(C(F)(F)F)nn2)cc1=O [Compound 16, (S)-3-chloro-4-(2-(4-(5-chloro-2-(4-(trifluoromethyl)-1H-1,2,3-triazol-1-yl)phenyl)-5-methoxy-2-oxopyridin-1(2H)-yl)butanamido)-benzamide] | 7.0% | 11.7% | 26.8%
